Reference: ChEMBL document CHEMBL5344424, “3-Hydroxypyridin-4(1H)-one Derivatives as pqs Quorum Sensing Inhibitors Attenuate Virulence and Reduce Antibiotic Resistance in Pseudomonas aeruginosa” (J Med Chem, 2023)

Tests used:
[1] = Inhibition of quorum sensing system in Pseudomonas aeruginosa PAO1 assessed as inhibition of pyocyanin production incubated for 24 hrs by optical density based analysis
[2] = Inhibition of quorum sensing system in Pseudomonas aeruginosa PAO1 assessed as inhibition of pyocyanin production at 10 uM incubated for 24 hrs by optical density based analysis relative to control
Pseudomonas aeruginosa = test: Synergistic antibacterial activity against Pseudomonas aeruginosa PAO1 infected in Caenorhabditis elegans assessed as worm survival rate at 0.125 ug/ml incubated for 72 hrs in presence of compound 16e by bright-field microscopy relative to control; assay type: functional

| Compound | IC50 [1] [µM] | inhibition [2] [%] | survival at 0.125 µg/mL (Pseudomonas aeruginosa) [%] |
| --- | --- | --- | --- |
| Cc1cc(=O)c(O)c(CNCc2cn(-c3cccc(Cl)c3)nn2)n1C | > 50 | – | – |
| Cc1ccc(-n2cc(CNCc3c(O)c(=O)cc(C)n3C)nn2)cc1 | 8.5 | 44.9 | – |
| Cc1cc(=O)c(O)c(CNCc2cn(-c3ccc(C(F)(F)F)cc3)nn2)n1C | 7.7 | 60.1 | – |
| Cc1cc(=O)c(O)c(CNCc2cn(-c3ccc(Br)cc3)nn2)n1C | 46.2 | – | – |
| Cn1cc(O)c(=O)cc1CNCc1cn(-c2ccc(Oc3ccccc3)cc2)nn1 | 6.1 | 58.3 | – |
| Cc1cc(=O)c(O)c(CNCc2cn(-c3ccccc3F)nn2)n1C | 18.2 | – | – |
| CCCCCCCCCn1cc(CNCc2c(O)c(=O)cc(C)n2C)nn1 | 6.6 | 51.2 | – |
| COc1ccc(-n2cc(CNCc3c(O)c(=O)cc(C)n3C)nn2)cc1 | 6.9 | 52 | – |
| Cc1cc(=O)c(O)c(CNCc2cn(-c3ccc(O)cc3)nn2)n1C | 24 | – | – |
| Cc1cc(=O)c(O)c(CNCc2cn(-c3ccncc3)nn2)n1C | > 50 | – | – |
| Cc1cc(=O)c(O)c(CNCc2cn(-c3ccc(F)cc3)nn2)n1C | 18.2 | – | – |
| Cc1cc(=O)c(O)c(CNCc2cn(-c3ccc(N(C)C)cc3)nn2)n1C | 33.2 | – | – |
| Cc1cc(=O)c(O)cn1Cc1cn(-c2ccc(Oc3ccccc3)cc2)nn1 | 8.4 | 43.3 | – |
| Cc1cc(=O)c(O)c(COCc2cn(-c3ccc(Oc4ccccc4)cc3)nn2)n1C | 5.1 | 55.1 | – |
| CCCCCCn1cc(CNCc2c(O)c(=O)cc(C)n2C)nn1 | 35.9 | – | – |
| CCCCCCCn1cc(CNCc2c(O)c(=O)cc(C)n2C)nn1 | 22 | – | – |
| Cc1cc(=O)c(O)c(CNCc2cn(-c3ccccc3)nn2)n1C | 34.7 | – | – |
| Cc1cc(=O)c(O)c(CNCc2cn(-c3cccc(F)c3)nn2)n1C | 45.8 | – | – |
| Cc1cc(=O)c(O)c(CNCc2cn(-c3ccccn3)nn2)n1C | > 50 | – | – |
| COC(=O)c1ccc(-n2cc(CNCc3c(O)c(=O)cc(C)n3C)nn2)cc1 | 45.8 | – | – |
| CCCCCn1cc(CNCc2c(O)c(=O)cc(C)n2C)nn1 | 35.3 | – | – |
| Cc1cc(=O)c(O)c(CNCc2cn(-c3ccccc3C#N)nn2)n1C | > 50 | – | – |

| Compound | IC50 [1] [µM] | inhibition [2] [%] | survival at 0.125 µg/mL (Pseudomonas aeruginosa) [%] |
| --- | --- | --- | --- |
| Cc1cc(=O)c(O)c(CNCc2cn(-c3ccc(N4CCN(C)CC4)cc3)nn2)n1C | > 50 | – | – |
| CCCCCCCCn1cc(CNCc2c(O)c(=O)cc(C)n2C)nn1 | 4.6 | 64 | – |
| Cc1cc(=O)c(O)c(CNCc2cn(-c3ccccc3Br)nn2)n1C | 32.2 | – | – |
| Cc1cc(=O)c(O)c(CNCC(=O)Nc2ccc(Oc3ccccc3)cc2)n1C | 19.4 | – | – |
| O=C(O)c1cn(C2CC2)c2cc(N3CCNCC3)c(F)cc2c1=O [CIPROFLOXACIN] | – | – | 35.7 |
| Cc1cc(=O)c(O)c(CNCc2cn(-c3ccccc3OC(F)(F)F)nn2)n1C | 8.1 | 50.1 | – |
| CCCCCCCCn1cc(CNCc2cc(=O)c(O)cn2C)nn1 | 21 | – | – |
| Cc1cc(=O)c(O)c(CNCc2cn(-c3ccc(OC(F)(F)F)cc3)nn2)n1C | 4 | 66.7 | – |
| Cc1cc(=O)c(O)c(CNCc2cn(-c3ccccc3C(F)(F)F)nn2)n1C | 9.8 | 49 | – |
| Cc1cc(=O)c(O)c(CNCc2cn(-c3ccc(Cl)cc3)nn2)n1C | 15.2 | – | – |
| COC(=O)c1ccccc1-n1cc(CNCc2c(O)c(=O)cc(C)n2C)nn1 | 28.4 | – | – |
| Cc1cc(=O)c(O)c(CNCc2cn(-c3ccc(N)cc3)nn2)n1C | 44.9 | – | – |
| Cc1cc(=O)c(O)c(CNCc2cn(-c3ccccc3[N+](=O)[O-])nn2)n1C | > 50 | – | – |
| CC(=O)c1ccc(-n2cc(CNCc3c(O)c(=O)cc(C)n3C)nn2)cc1 | 37.4 | – | – |
| Cc1cc(=O)c(O)c(CNCc2cn(-c3ccc(C#N)cc3)nn2)n1C | > 50 | – | – |
| CCCCn1cc(CNCc2c(O)c(=O)cc(C)n2C)nn1 | > 50 | – | – |
| Cn1cc(O)c(=O)cc1CNCc1cn(-c2ccc(OC(F)(F)F)cc2)nn1 | 18.9 | – | – |
| COc1ccccc1-n1cc(CNCc2c(O)c(=O)cc(C)n2C)nn1 | 29.2 | – | – |
| COc1cccc(-n2cc(CNCc3c(O)c(=O)cc(C)n3C)nn2)c1 | 42 | – | – |
| Cc1cc(=O)c(O)c(CNCc2cn(-c3ccccc3Cl)nn2)n1C | 18.4 | – | – |
| CC(=O)c1ccccc1-n1cc(CNCc2c(O)c(=O)cc(C)n2C)nn1 | 24.8 | – | – |
